Experiments:
Assay type in all cases: cell-based, human
[1] = test system: hESC-derived cardiac mesoderm; test: Cardiac mesoderm differentiation into cardiovascular fates, qPCR; details: BMP4 30 ng/mL+XAV939 1 μM with FGF2 or FGF receptor antagonists at 100 nM, 48 hours
Description: Day 2 lateral mesoderm was differentiated into day 4 cardiac mesoderm by treating them with 1 μM A8301+30 ng/mL BMP4+1 μM C59+20 ng/mL FGF2 for 48 hrs, or alternatively, with 1 μM A8301+30 ng/mL BMP4+20 ng/mL FGF2 for 24 hrs followed by 25 ng/mL Activin+30 ng/mL BMP4+1 μM C59 for the next 24 hrs (schema in FIG. 5E; positive effect of mid-stage Activin shown in FIG. 12K). Subsequently, day 4 cardiac mesoderm was briefly washed (DMEM/F12) and treated with 30 ng/mL BMP4+1 μM XAV939+200 μg/mL 2-phospho-ascorbic acid (Sigma) for 48-96 hrs to yield day 6-8 cardiomyocyte-containing populations. Spontaneously contracting cardiomyocyte foci were evident from day 8 onwards.
C) To reveal the possible identity of non-cardiac mesoderm lineages that were contaminating cardiac mesoderm-containing cultures, NKX2.5-GFP hESCs were differentiated towards mid primitive streak (day 1) and were differentiated towards a heterogeneous population containing cardiac mesoderm (day 3) by treatment with SB-505124+BMP4+C59 (without FGF2) on days 2-3 of differentiation. FACS was performed on day 3 to purify either NKX2.5-GFP^+ or NKX2.5-GFP^− cells (top subpanels) which were sorted for qPCR (bottom subpanels). Gene expression was normalized to expression of a gene in the NKX2.5-GFP^+ fraction (dotted line). D) Timecourse of gene expression in hESCs differentiating towards mid primitive streak and lateral mesoderm, with treatment by SB-505124+BMP4+C59 on days 2-3 of differentiation. […] G) To assess whether a stabilized vitamin C analog (ascorbic acid-2-phosphate) (AA2P) enhanced cardiac mesoderm differentiation into cardiomyocytes, day 4 hESC-derived cardiac mesoderm was exposed to BMP4 (30 ng/mL)+XAV939 (1 μM) for 48 hours in the presence or absence of 200 μg/mL AA2P and qPCR was conducted of day 6 populations; qPCR data were normalized such that expression values in the highest-expressing sample was normalized=1.0. […] J) In the mouse embryo, endocardium (progenitors to heart-affiliated endothelium) are marked by transient coexpression of pan-heart marker Nkx2.5 together with endothelial markers (Ferdous et al., 2009; Stanley et al., 2002).

[2] = test system: day 5 hematopoietic intermediates; test: Day 5-7 continued differentiation of hematopoietic intermediates, factor withholding; details: for GFI1B expression: individually withholding the factor from the 8 factors, 48 hours
Description: SOX17^mCherry/+ H9 hESCs (referred to as SOX17-mCherry hESCs throughout this study) were routinely propagated in mTeSR1 (StemCell Technologies)+1% penicillin/streptomycin. They were passaged ˜1:12-1:25 as fine clumps using Accutase (Gibco) onto plates precoated with a Geltrex substratum (Gibco) in mTeSR1 medium supplemented with thiazovivin ([…]; a ROCK inhibitor). After overnight plating, hESCs were washed (DMEM/F12) and differentiated towards posterior PS using BMP4 (15-40 ng/mL, R&D Systems), CHIR99021 ([…]), FGF2 (20 ng/mL, Invitrogen) and PIK90 (100 nM, Calbiochem) for 24 hours, with the optional inclusion of Activin (30 ng/mL, R&D Systems) to induce mid PS. Day 1 mid or posterior PS was subsequently washed (DMEM/F12) and further differentiated using BMP4 (40 ng/mL), GDC-0941 (0.25-2.5 μM, Cellagen Technology), Forskolin (10 μM, Tocris), SB-505124 ([…]), VEGF (100 ng/mL, R&D Systems), XAV939 (1 μM, Tocris) and ascorbic acid-2-phosphate (200 μg/mL, Sigma) for 24 hours. Day 2 cultures were further directed into the definitive hematopoietic lineage/hemogenic precursors by Activin A (15 ng/mL), GDC-0941 (0.25-2.5 μM), VEGF (100 ng/mL), XAV939 (1 μM) and ascorbic acid-2-phosphate (200 μg/mL) for 24 hours. Day 3 definitive hematopoietic progenitors were subsequently differentiated into early Runx1^lowGfi1^low hemogenic intermediates through day 4-5 treatment with BMP4 (50 ng/mL), TTNPB (500 nM), VEGF (100 ng/mL) and XAV939 (1 μM) for 48 hours, supplemented with SB-505124 (2 μM) on day 5. Day 5 populations were then dissociated into single cells, counted and reaggregated in individual wells of a low-adhesion V-bottom or U-bottom 96-well plate (e.g., Thermo Fisher, catalog no. 249952) with ˜15,000-20,000 cells seeded per well. Aggregates were cultured for 48 additional hours until day 7 in BMP4 (50 ng/mL), TTNPB (500 nM), VEGF (100 ng/mL), XAV939 (1 μM), SB-505124 (2 μM), SCF (25-50 ng/mL, R&D Systems), IL6 (10 ng/mL, R&D Systems) and IL6RA (250-1000 ng/mL, R&D Systems). All differentiation was conducted in serum-free CDM2 fully-defined basal media.

[3] = test system: day 3 early somite progenitors; test: Patterning of early somite progenitors into sclerotome or dermomyotome
Description: Day 2 paraxial mesoderm was briefly washed (DMEM/F12) and further differentiated into day 3 early somite/somitomere precursors for 24 hours (1 μM A-83-01+250 nM LDN-193189+1 μM C59+500 nM PD0325901). Subsequently, day 3 early somites were dorsoventrally patterned into either ventral somites/sclerotome (5 nM 21K+1 μM C59) or dorsal somites/dermomyotome (3 μM CHIR99021+150 nM Vismodegib). Sclerotome induction was conducted for 48-72 hours (leading to day 5-6 ventral somite progenitors). […] Media was changed 24 hours for all steps. The Hedgehog agonist 21K, which has been previously described in, e.g., Brunton et al., 2009 the disclosure of which is incorporated herein by reference in its entirety, was commercially synthesized.
Day 3 early somites were briefly washed (DMEM/F12), treated with BMP4+CHIR99021+Vismodegib for 24 hours, washed again (DMEM/F12) and subsequently treated with CHIR99021 (3 μM)+21K (5 nM) for 24 hours. This day 5 dermomyotome was further empirically differentiated towards skeletal muscle-like progeny (using medium containing 2% horse serum, which has been previously described in, e.g., Xu et al. 2013, the disclosure of which is incorporated herein by reference in its entirety) for 12 days, yielding day 17 skeletal muscle-containing populations.
FIG. 11: A) To determine the length of time required for sclerotome differentiation, a qPCR timecourse was performed, encompassing undifferentiated hESCs (D0), day 2 hESC-derived paraxial mesoderm (D2 PXM), day 3 hESC-derived early somite progenitors, and hESC-derived day 3 early somite progenitors that were exposed to sclerotome inductive conditions (5 nM 21K+1 μM C59) for 24 or 48 hours. B) Description of EF1α-BCL2-T2A-GFP lentiviral construct (otherwise known as “C306”; top) and FACS plot of a stably-transduced polyclonal H9 hESC line with near-uniform expression of the BCL2-T2A-GFP transgene (green contour) by comparison to uncolored wild-type hESCs (bottom) (see above methods for details of derivation of the H9 BCL2-T2A-GFP hESC line). C) Higher-magnification picture of BCL2-T2A-GFP hESC-derived sclerotome ectopic bone grafts (originally described above in FIG. 4, panel E), showing that despite the near-ubiquitous expression of GFP throughout the ectopic bone graft (indicating its human provenance), the blood vessels are clearly GFP-negative and therefore presumably derived from the mouse host; scale bar=1 mm. […] L) Description of EF1a-BCL2-T2A-GFP lentiviral construct (otherwise known as “C306”; top) and FACS plot of a stably-transduced polyclonal H9 hESC line with near-uniform expression of the BCL2-T2A-GFP transgene (green contour) by comparison to uncolored wild-type hESCs (bottom) (see the methods described herein for details of derivation of the H9 BCL2-T2A-GFP hESC line). M) Description of UBC-Luciferase-T2A-tdTomato lentiviral construct (top); bioluminescent assay of cultured H9 UBC-Luciferase-T2A-tdTomato hESCs validates that these cells are luciferase-expressing in vitro (bottom).

Molecule | cardiovascular fate promoted [1] | GFI1B expression [2] | also measured
CCN(CC)CCCCNc1ncc2cc(-c3cc(OC)cc(OC)c3)c(NC(=O)NC(C)(C)C)nc2n1 [PD173074, N-[2-[[4-(Diethylamino)butyl]amino]-6-(3,5-dimethoxyphenyl)pyrido[2,3-d]pyrimidin-7-yl]-N′-(1,1-dimethylethyl)urea] | promoted (pro)epicardium | – | –
SCF: SCF protein signaling through the KIT receptor | – | strongly diminished | –
CS(=O)(=O)c1ccc(C(=O)Nc2ccc(Cl)c(-c3ccccn3)c2)c(Cl)c1 [Vismodegib] | – | – | dorsal somite marker PAX3 and sclerotome fate ([3]; CHIR together with Vismodegib): sustained dorsal somite marker PAX3 while inhibiting the sclerotome fate
CN[C@H]1CC[C@H](N(Cc2ccc(OC)c(-c3ccncc3)c2)C(=O)c2sc3c(F)ccc(F)c3c2Cl)CC1 [21K, 3-chloro-4,7-difluoro-N-(4-methoxy-3-(pyridin-4-yl)benzyl)-N-((1r,4r)-4-(methylamino)cyclohexyl)benzo[b]thiophene-2-carboxamide] | – | – | sclerotome fate induction ([3]; 21K with C59, 2-3 days): efficiently induced the sclerotome fate; EN1 induction ([3]; later stage CHIR99021+21K 5 nM, 24-48 hours): important to induce EN1
IL6: IL6 ligand | – | strongly diminished | –
FGF2: FGF agonist, FGF family ligand | promoted endocardium | – | –
VEGF | – | did not markedly impair GFI1B expression | vein marker NR2F2 expression ([2]; withholding the factor): increased expression of the vein marker NR2F2
CCN1CCN(c2ccc(Nc3cc(N(C)C(=O)Nc4c(Cl)c(OC)cc(OC)c4Cl)ncn3)cc2)CC1 [BGJ398] | promoted (pro)epicardium | – | –
AZD4547 | promoted (pro)epicardium | – | –
IL6RA: soluble IL6 receptor ectodomain (protein) LAPRRCPAQEVARGVLTSLPGDSVTLTCPGVEPEDNATVHWVLRKPAAGSHPSRWAGMGRRLLLRSVQLHDSGNYSCYRAGRPAGTVHLLVDVPPEEPQLSCFRKSPLSNVVCEWGPRSTPSLTTKAVLLVRKFQNSPAEDFQEPCQYSQESQKFSCQLAVPEGDSSFYIVSMCVASSVGSKFSKTQTFQGCGILQPDPPANITVTAVARNPRWLSVTWQDPHSWNSSFYRLRFELRYRAERSKTFTTWMVKDLQHHCVIHDAWSGLRHVVQLRAQEEFGQGEWSEWSPEAMGTPWTESRSPPAENEVSTPMQALTTNKDDDNILFRDSANATSLPVQDSSSVPLP | – | strongly diminished | –

Source: US10787640B2, “Producing mesodermal cell types and methods of using the same” (The Board of Trustees of the Leland Stanford Junior …, priority 2015, dated 2020)
